Measurements as given in patent US8426447B2, “Spiro-tricyclic ring compounds as beta-secretase modulators and methods of use” (Amgen Inc., priority 2008, dated 2013).
pIC50: −log10 of the molar value. One block for each compound: values may come before it.

Legend:
BACE1 [1] = molecular target: T1, BACE1 (Homo sapiens, UniProt P56817); experiment: In Vitro Enzymatic BACE FRET (Fluorescence Resonance Energy Transfer) Assay; type: biochemical; details: read-out: BACE1 FRET assay; for IC50: Table III, IC50's in uM ranges
T1 sequence (P56817 46-501, species assumed): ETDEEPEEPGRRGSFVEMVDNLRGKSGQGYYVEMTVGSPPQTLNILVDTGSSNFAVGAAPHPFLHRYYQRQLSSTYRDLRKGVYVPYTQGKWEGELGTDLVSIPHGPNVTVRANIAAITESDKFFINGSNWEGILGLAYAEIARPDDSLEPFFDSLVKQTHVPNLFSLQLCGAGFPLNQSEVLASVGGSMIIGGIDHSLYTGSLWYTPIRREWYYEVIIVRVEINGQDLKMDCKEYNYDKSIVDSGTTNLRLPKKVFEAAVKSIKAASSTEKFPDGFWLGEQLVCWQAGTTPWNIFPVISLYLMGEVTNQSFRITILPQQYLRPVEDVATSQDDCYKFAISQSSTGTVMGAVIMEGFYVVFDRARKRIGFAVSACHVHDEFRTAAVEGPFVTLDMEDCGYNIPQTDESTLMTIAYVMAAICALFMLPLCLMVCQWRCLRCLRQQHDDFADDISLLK
Description: In Vitro Enzymatic BACE FRET (Fluorescence Resonance Energy Transfer) Assay (Enzyme Assay Data in the Example Tables I, II, III & IV) The assay buffer used in this screen is 0.05 M acetate, pH 4.2, 10% DMSO final, 100 uM genapol (which is a nonionic detergent, below its Critical Micelle Concentration). […] This assay is effectively started by the addition of FRET substrate (50 nM) and the combination is incubated for one hour. The FRET assay is terminated with by addition of Tris buffer, which raises the pH to neutrality, and the fluorescence is determined. The FRET substrate is a peptide with commercially available fluorophore and quencher, on opposite sides of the BACE cleavage site. […]

BACE1 [2] = molecular target: T1, BACE1; experiment: In Vitro BACE Cell-based Assay (HEK cell assay): Aβ40 in conditioned medium of cells stably expressing Amyloid Precursor Protein, sandwich ELISA; details: read-out: HEK cell assay; for IC50: Table III, IC50's in uM ranges
Description: In Vitro BACE Cell-based Assay
The cell-based assay measures inhibition or reduction of Aβ40 in conditioned medium of test compound treated cells expressing amyloid precursor protein.
Cells stably expressing Amyloid Precursor Protein (APP) were plated at a density of 40K cells/well in 96 well plates (Costar). The cells were cultivated for 24 hours at 37° C. and 5% CO2 in DMEM supplemented with 10% FBS. The test compounds were then added to cells in 10-point dose response concentrations with the starting concentration being either 100 μM or 10 μM. The compounds were diluted from stock solutions in DMSO and the final DMSO concentration of the test compounds on cells was 0.1%. After 24 h of incubation with the test compounds the supernatant conditioned media was collected and the Aβ 40 levels were determined using a sandwich ELISA. The IC50 of the compound was calculated from the percent of control or percent inhibition of Aβ 40 as a function of the concentration of the test compound.
The sandwich ELISA to detect Aβ 40 was performed in 96 well microtiter plates, which were pre-treated with goat anti-rabbit IgG (Pierce). The capture and detecting antibody pair that were used to detect Aβ 40 from cell supernatants were affinity purified pAb40 (Biosource) and biotinylated 6E10 (Signet Labs Inc.), respectively. The optimal concentration for the pAb40 antibody was 3 μg/ml in Superblock/TBS (Pierce) that was supplemented with 0.05% Tween 20 (Sigma).
Cellular supernatants were incubated with the capture antibody for 3 h at 4° C., followed by 3 wash steps in TBS-tween (0.05%). The detecting antibody incubation was for 2 h at 4° C., again followed by the wash steps as described previously. The final readout of the ELISA is Time-Resolved Fluorescence (counts per minute) using Delfia reagents Streptavidin-Europium and Enhancement solutions (Perkin Elmer) and the Victor 2 multilabel counter (Perkin Elmer).

[3] = in vitro BACE FRET enzyme assay, IC50 class symbols
[4] = HEK cell-based assay, Aβ40 in conditioned medium, IC50 class symbols

- pIC50 (BACE1 [1]): 6.00 to 7.00
- pIC50 (BACE1 [2]): 5.30 to 6.00
Compound: NC1=N[C@]2(CO1)c1cc(-c3cccnc3)ccc1Oc1cnc(Cl)cc12 [compound 953]

- pIC50 (BACE1 [1]): > 7.00
- pIC50 (BACE1 [2]; HEK cells): > 7.00
Compound: CC1(C)CC(c2cc3c(cn2)Oc2ccc(-c4cccnc4)cc2[C@@]32COC(N)=N2)=CCO1 [compound 436]

- pIC50 (BACE1 [1]): > 7.00
- pIC50 (BACE1 [2]): > 7.00
Compound: NC1=N[C@@]2(CO1)c1cc(-c3cccnc3)ccc1Oc1ccc(N3CCOCC3)cc12 [compound 764]

- pIC50 (BACE1 [1]): > 7.00
- pIC50 (BACE1 [2]): 6.00 to 7.00
Compound: COc1ccc(-c2ccc3c(c2)[C@]2(COC(N)=N2)c2cc(-c4cccnc4)ccc2O3)o1 [compound 711]

- pIC50 (BACE1 [1]): > 7.00
- pIC50 (BACE1 [2]): 6.00 to 7.00
Compound: Cc1csc(-c2ccc3c(c2)[C@]2(COC(N)=N2)c2cc(-c4cccnc4)ccc2O3)c1 [compound 726]

- pIC50 (BACE1 [1]; Table IV, class symbols): > 7.00
- pIC50 (BACE1 [2]; Table IV, class symbols): 6.00 to 7.00
Compound: NC1=N[C@@]2(CO1)c1cc(-c3cccnc3)ccc1Oc1cnc(C(=O)CCCCO)cc12 [compound 612]

- pIC50 (BACE1 [1]): > 7.00
- pIC50 (BACE1 [2]): 6.00 to 7.00
Compound: NC1=N[C@]2(CO1)c1cc(-c3cccnc3)ccc1Oc1cnc(C3CC3)cc12 [compound 678]

- pIC50 (BACE1 [1]): > 7.00
- pIC50 (BACE1 [2]; HEK cells): > 7.00
Compound: NC1=N[C@@]2(CO1)c1cc(-c3cccnc3)ccc1Oc1cnc(N3CCCCC3)cc12 [compound 445]

More lines, now with the values behind:

Compound: CC(C)(C#N)COc1cnc2c(c1)[C@]1(COC(N)=N1)c1cc(-c3cc(F)ccc3F)ccc1O2 [compound 407]
- pIC50 (BACE1 [1]; [3]): > 7.00
- pIC50 (BACE1 [2]; [4]): > 7.00

Compound: COc1ccc(F)c(-c2ccc3c(c2)C2(COC(N)=N2)c2cc(OC)ccc2O3)c1 (stereo not shown) [Example 15, 2′-(2-fluoro-5-methoxyphenyl)-7′-methoxyspiro[1,3-oxazole-4,9′-xanthen]-2-amine]
- pIC50 (BACE1 [1]; Table 1): 5.30 to 6.00
- pIC50 (BACE1 [2]; Table 1, Aβ40, 24 h incubation): < 5.30

Compound: CC(C)(O)C#Cc1cnc2c(c1)[C@]1(COC(N)=N1)c1cc(-c3cncnc3)ccc1O2 [compound 823]
- pIC50 (BACE1 [1]; Table IV, class symbols): > 7.00
- pIC50 (BACE1 [2]; Table IV, class symbols): > 7.00

Compound: COC(=O)c1ccc2c(c1)[C@@]1(COC(N)=N1)c1cc(OCC(C)(C)C)ccc1O2 [compound 850]
- pIC50 (BACE1 [1]; Table IV, class symbols): 6.00 to 7.00
- pIC50 (BACE1 [2]; Table IV, class symbols): 5.30 to 6.00

Compound: CC1(COc2ccc3c(c2)[C@@]2(COC(N)=N2)c2cc(-c4cccc(Cl)c4)cnc2O3)COC1 [compound 772]
- pIC50 (BACE1 [1]): > 7.00
- pIC50 (BACE1 [2]): 6.00 to 7.00

Compound: COCC#Cc1ccc2c(c1)[C@]1(COC(N)=N1)c1cc(-c3cncnc3)ccc1O2 [156a]
- IC50 (BACE1 [1]): < 0.1 µM
- IC50 (BACE1 [2]): < 0.1 µM

Compound: CC(C)(C)C#Cc1ccc2c(n1)[C@@]1(COC(N)=N1)c1cc(-c3cncnc3)ccc1O2 [compound 528]
- pIC50 (BACE1 [1]): > 7.00
- pIC50 (BACE1 [2]; HEK cells): > 7.00

Compound: NC1=N[C@]2(CO1)c1cc(C3=CCOCC3)ccc1Oc1cc(F)c(-c3cccnc3)cc12 [compound 492]
- pIC50 (BACE1 [1]): > 7.00
- pIC50 (BACE1 [2]; HEK cells): > 7.00

Compound: COc1ccc2c(c1)[C@@]1(COC(N)=N1)c1cc(-c3ccc(OCC4CC4)nc3)cnc1O2 [compound 668]
- pIC50 (BACE1 [1]): 6.00 to 7.00
- pIC50 (BACE1 [2]): 6.00 to 7.00

Compound: CC(C)(C)/C=C/c1cnc2c(c1)[C@]1(COC(N)=N1)c1cc(-c3cccnc3F)ccc1O2 [compound 380]
- pIC50 (BACE1 [1]; [3]): > 7.00
- pIC50 (BACE1 [2]; [4]): > 7.00

Compound: CC(C)(C)OC(=O)N1CC=C(c2ccc3c(c2)[C@]2(COC(N)=N2)c2cc(-c4cccnc4)ccc2O3)CC1 [compound 819]
- pIC50 (BACE1 [1]; Table IV, class symbols): > 7.00
- pIC50 (BACE1 [2]; Table IV, class symbols): 6.00 to 7.00

Compound: COc1ncc(-c2ccc3c(c2)[C@]2(COC(N)=N2)c2cc(OCC(C)(C)C)ccc2O3)cn1 [compound 188]
- IC50 (BACE1 [1]): 0.1 to 1 µM
- IC50 (BACE1 [2]): 1 to 5 µM

Compound: CC1(C)CN(c2cc(F)c3c(c2)[C@]2(COC(N)=N2)c2cc(-c4cccnc4)ccc2O3)CCO1 [compound 484]
- pIC50 (BACE1 [1]): > 7.00
- pIC50 (BACE1 [2]; HEK cells): > 7.00

Compound: CC(C)(C)COc1ccc2c(c1)[C@]1(COC(N)=N1)c1cc(-c3csc(N4CCCC4)n3)ccc1O2 [compound 215]
- IC50 (BACE1 [1]): 1 to 5 µM
- IC50 (BACE1 [2]): > 5 µM

Compound: NC1=N[C@@]2(CO1)c1cc(-c3cc(F)ccc3F)ccc1Oc1ncc(N3CCOCC3)cc12 [compound 461]
- pIC50 (BACE1 [1]): > 7.00
- pIC50 (BACE1 [2]; HEK cells): > 7.00
